From ChEMBL document CHEMBL1201862, “PubChem BioAssay data set” (2004)
Activity calls are given as the source filed them.

How the values were obtained:
ELAV-like protein 1 = ELAV-like protein 1 (Homo sapiens, UniProt Q15717); assay: Identify HuR specific inhibitors.; format: functional
[1] = target: T1, Tyrosine-protein phosphatase non-receptor type 7 (Homo sapiens, UniProt P35236); assay: inhibitors of human HePTP phosphatase, […], biochemical, absorbance, leukemia target (AID 521); format: functional
T1 sequence (P35236 whole entry): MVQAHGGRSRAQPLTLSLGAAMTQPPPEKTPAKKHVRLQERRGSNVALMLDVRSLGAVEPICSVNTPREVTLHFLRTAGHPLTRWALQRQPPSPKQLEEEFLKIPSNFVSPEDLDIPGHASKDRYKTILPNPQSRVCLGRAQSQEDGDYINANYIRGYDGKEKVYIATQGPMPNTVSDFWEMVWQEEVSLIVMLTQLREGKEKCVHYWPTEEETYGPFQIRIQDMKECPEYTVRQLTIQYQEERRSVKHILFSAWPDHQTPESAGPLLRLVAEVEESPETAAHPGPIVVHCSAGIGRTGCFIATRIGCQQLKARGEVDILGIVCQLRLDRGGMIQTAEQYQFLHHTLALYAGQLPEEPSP

Fibrinogen beta chain [2] = target: T2, Fibrinogen beta chain (Homo sapiens, UniProt P02675); assay: Fluorescence polarization-based biochemical high throughput dose response assay to identify inhibitors that disrupt the binding of a cyclic peptide (Tn7) to the fibrin proteolytic product D-Dimer and fragment E complex [DD(E )].
T2 sequence (P02675 whole entry, the tested form may be a part): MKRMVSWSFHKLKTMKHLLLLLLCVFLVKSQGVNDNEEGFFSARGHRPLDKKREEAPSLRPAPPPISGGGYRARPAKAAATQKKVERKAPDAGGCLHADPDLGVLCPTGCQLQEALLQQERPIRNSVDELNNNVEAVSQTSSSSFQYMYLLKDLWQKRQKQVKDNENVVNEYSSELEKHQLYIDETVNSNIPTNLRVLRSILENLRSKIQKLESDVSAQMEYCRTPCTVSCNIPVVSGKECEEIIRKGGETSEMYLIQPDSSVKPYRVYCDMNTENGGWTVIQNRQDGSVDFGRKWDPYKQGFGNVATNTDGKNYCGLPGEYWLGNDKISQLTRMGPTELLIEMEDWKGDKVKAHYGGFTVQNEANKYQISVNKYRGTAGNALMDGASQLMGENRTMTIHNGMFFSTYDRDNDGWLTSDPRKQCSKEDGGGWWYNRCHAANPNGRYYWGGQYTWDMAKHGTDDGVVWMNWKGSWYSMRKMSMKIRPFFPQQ

Streptokinase A = target: T3, Streptokinase A (Streptococcus pyogenes serotype M1, UniProt P10520); assay: S. pyogenes streptokinase expression inhibitors, potency, dose response, plasminogen activation absorbance, OD405 (AID 1914); format: functional, Streptococcus pyogenes M1 GAS;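 also: secreted streptokinase activity via plasminogen activation per viability signal from cell pellet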
T3 sequence (P10520 whole entry): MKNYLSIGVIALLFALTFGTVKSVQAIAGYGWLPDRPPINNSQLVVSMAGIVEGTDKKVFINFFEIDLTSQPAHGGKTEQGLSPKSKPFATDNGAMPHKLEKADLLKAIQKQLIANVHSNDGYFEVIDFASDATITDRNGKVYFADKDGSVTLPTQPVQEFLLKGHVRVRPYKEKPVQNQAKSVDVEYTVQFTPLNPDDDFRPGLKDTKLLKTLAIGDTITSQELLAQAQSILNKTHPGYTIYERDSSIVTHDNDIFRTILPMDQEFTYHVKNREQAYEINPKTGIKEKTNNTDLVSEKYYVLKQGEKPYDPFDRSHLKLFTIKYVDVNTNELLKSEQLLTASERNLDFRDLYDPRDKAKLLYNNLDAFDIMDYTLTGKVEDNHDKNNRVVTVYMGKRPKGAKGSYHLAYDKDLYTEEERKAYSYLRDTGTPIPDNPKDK

Streptococcus = assay: Group A Streptococcus viability loss, dose response, counter-screen for streptokinase expression inhibitor project, luminescence, BacTiterGlo (AID 1915); format: functional, organism-based;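 also: potency for reduction of bacterial viability or growth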
Fibrinogen beta chain [3] = target: T2, Fibrinogen beta chain; assay: Fluorescence polarization-based biochemical high throughput dose response assay to identify inhibitors that disrupt the binding of a cyclic peptide (Tn6) to the fibrin proteolytic product D-Dimer and fragment E complex [DD(E )].
[4] = target: E3 ubiquitin-protein ligase XIAP (Homo sapiens, UniProt P98170); assay: Counter Screen using XIAP-Bir3 for Chemical Antagonists of Bir1/2 domains of IAP-family anti-apoptotic proteins. [Related pubchem assays (depositor defined):AID1018, AID1449, AID1514, AID1638, AID1749, AID1750, AID488957, AID488963]
Chain of E3 ubiquitin-protein ligase XIAP (P98170 whole entry): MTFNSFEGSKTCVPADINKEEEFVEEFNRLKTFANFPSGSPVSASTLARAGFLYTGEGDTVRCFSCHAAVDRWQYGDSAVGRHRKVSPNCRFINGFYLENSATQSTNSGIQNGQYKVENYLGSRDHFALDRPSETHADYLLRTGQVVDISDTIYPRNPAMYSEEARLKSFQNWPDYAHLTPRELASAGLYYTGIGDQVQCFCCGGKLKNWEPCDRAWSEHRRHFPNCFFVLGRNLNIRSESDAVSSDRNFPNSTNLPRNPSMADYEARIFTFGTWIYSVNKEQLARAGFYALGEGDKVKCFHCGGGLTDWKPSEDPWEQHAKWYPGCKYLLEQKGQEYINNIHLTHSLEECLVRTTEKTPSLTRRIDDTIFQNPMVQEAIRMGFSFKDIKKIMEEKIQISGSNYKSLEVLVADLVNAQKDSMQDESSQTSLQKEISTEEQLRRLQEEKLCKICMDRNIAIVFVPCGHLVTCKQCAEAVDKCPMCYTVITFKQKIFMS

[5] = target: T4, Histone-lysine N-methyltransferase NSD2 (Homo sapiens, UniProt O96028); format: biochemical
T4 sequence (O96028 whole entry): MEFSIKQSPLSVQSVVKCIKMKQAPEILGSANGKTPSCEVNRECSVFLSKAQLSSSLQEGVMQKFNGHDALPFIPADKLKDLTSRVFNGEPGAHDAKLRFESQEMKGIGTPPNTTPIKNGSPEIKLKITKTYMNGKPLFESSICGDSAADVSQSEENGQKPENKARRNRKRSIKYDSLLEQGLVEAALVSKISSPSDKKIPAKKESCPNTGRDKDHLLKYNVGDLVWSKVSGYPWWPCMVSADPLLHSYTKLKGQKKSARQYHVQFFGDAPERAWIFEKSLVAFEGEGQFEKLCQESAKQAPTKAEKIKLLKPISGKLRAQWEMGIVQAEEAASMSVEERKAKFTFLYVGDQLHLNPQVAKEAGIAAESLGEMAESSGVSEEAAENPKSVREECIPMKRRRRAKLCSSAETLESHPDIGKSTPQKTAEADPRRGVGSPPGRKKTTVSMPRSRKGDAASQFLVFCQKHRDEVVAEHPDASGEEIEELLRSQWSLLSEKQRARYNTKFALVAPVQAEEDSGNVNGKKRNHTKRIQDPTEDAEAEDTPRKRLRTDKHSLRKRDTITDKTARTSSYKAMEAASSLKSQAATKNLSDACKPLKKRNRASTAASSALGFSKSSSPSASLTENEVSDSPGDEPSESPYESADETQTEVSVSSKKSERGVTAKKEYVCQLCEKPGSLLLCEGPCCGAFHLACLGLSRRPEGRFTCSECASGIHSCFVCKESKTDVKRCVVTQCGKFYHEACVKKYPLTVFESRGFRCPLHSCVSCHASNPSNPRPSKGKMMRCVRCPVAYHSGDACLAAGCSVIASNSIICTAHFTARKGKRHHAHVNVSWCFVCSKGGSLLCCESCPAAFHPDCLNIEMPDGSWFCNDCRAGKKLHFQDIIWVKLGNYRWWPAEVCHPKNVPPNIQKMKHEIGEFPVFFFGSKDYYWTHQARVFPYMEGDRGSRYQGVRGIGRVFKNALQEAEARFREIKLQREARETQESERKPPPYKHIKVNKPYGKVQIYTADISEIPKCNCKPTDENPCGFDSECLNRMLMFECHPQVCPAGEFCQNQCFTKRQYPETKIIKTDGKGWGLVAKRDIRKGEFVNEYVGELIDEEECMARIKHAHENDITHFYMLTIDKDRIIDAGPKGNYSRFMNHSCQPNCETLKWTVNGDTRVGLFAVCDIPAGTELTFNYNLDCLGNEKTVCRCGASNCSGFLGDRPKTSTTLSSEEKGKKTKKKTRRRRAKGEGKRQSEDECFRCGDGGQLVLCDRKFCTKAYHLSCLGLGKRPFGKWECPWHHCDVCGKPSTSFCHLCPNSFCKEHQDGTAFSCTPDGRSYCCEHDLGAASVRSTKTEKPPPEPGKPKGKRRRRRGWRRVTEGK

Large T antigen = Large T antigen (Simian virus 40, UniProt P03070); format: functional, Betapolyomavirus macacae;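 also: Confirmatory-stage PubChem screen for compounds that inhibit SV40 T antigen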
Chain of Large T antigen (P03070 whole entry): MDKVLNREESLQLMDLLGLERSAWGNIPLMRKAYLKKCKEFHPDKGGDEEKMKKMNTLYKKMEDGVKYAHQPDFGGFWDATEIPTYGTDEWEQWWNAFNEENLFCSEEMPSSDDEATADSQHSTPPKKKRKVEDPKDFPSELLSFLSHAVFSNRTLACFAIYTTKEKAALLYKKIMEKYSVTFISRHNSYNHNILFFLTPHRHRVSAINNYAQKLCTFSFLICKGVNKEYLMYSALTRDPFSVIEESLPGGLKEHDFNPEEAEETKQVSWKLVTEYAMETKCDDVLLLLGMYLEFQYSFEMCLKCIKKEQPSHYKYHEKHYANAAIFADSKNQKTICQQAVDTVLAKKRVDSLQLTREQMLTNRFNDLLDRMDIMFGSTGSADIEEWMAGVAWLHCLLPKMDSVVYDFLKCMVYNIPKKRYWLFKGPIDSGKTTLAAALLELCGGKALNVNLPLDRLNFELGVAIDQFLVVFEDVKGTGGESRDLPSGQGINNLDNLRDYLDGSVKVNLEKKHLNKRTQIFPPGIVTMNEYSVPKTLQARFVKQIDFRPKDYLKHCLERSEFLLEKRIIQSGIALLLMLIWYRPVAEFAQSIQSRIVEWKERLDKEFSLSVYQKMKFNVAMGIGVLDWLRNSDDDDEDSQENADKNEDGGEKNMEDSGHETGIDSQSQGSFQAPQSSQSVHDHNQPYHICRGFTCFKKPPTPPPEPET

[6] = tested on: Streptococcus sp. 'group A'; assay: growth inhibition of control SK(-) GAS strain, dose response, counter-screen for streptokinase expression inhibitor project, luminescence, kanamycin, BacTiterGlo, confirmation (AID 1900); format: functional, organism-based
[7] = target: T5, Tyrosyl-DNA phosphodiesterase 2 (Homo sapiens, UniProt O95551); assay: human TDP2 enzyme inhibitors, dose response, biochemical, epi absorbance, IC50 (AID 743297)
T5 sequence (O95551 whole entry): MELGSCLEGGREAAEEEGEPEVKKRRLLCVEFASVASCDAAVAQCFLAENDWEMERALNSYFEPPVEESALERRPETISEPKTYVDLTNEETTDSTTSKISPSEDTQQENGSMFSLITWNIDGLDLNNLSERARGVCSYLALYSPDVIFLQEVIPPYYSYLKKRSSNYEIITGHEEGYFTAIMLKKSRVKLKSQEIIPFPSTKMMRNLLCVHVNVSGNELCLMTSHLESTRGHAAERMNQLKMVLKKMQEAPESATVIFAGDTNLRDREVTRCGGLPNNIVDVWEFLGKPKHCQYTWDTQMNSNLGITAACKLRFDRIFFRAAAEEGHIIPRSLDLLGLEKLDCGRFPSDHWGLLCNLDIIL

[8] = Concentration-dependent survival of SW480 colon cancer line, luminescence detection with CellTiter-Glo, half-maximal inhibitory concentration (AID 1117338); format: functional
[9] = cytotoxicity toward HCT116 cells – cell-based, CellTiter-Glo luminescence, IC50, dose response (AID 1117332); format: functional; conditions: HCT-116
[10] = SNU-C1 cell viability reduction, dose response, CellTiter-Glo luminescence (AID 1117323); format: functional, cell-based
[11] = CellTiter-Glo luminescent dose response of DLD-1 viability loss (AID 1117352); format: functional
[12] = cytotoxicity toward HT-29 cells – cell-based, CellTiter-Glo luminescence, IC50, dose response (AID 1117330); format: functional
[13] = cytotoxicity toward Colo320 cells – cell-based, CellTiter-Glo luminescence, IC50, dose response (AID 1117334); format: functional; conditions: COLO 320
[14] = HCT116 cell viability decrease, GSK3B pretreatment – CellTiter-Glo, IC50, dose response (AID 1117339); format: functional; conditions: HCT-116
[15] = RKO cell viability reduction, dose response, CellTiter-Glo luminescence (AID 1117322); format: functional
[16] = P. falciparum Dd2 growth inhibitors, dose response, SYBR Green, cherry-picked samples (AID 1159567); format: functional, cell-based
[17] = P. falciparum ATP4 D1247Y mutant growth inhibitors, dose response, NITD609-resistant line, SYBR Green, dry powder (AID 1159571); format: functional, cell-based;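 also: parasites synchronized at ring stage by sorbitol before testing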
[18] = P. falciparum 3D7-ScDHODH growth inhibitors, dose response, SYBR Green, dry powder samples (AID 1159570); format: functional, cell-based;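 also: parasite growth measured after 72 hours of compound exposure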
[19] = P. falciparum Dd2 growth inhibitors, dose response, SYBR Green, dry powder samples (AID 1159566); format: functional, cell-based;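 also: potency for growth inhibition with lower SYBR green DNA signal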

Chain of ELAV-like protein 1 (Q15717 whole entry): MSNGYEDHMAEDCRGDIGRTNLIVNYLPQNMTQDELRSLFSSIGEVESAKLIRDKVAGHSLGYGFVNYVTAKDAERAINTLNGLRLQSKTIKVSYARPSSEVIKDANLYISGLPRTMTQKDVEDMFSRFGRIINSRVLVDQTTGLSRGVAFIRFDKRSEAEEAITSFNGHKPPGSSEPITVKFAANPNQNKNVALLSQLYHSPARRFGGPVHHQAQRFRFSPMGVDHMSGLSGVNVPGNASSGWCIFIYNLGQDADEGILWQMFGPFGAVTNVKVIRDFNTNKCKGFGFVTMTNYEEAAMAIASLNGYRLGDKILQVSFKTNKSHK

In the case of `O=C(O)C1=NN(c2cc(Cl)c(S(=O)(=O)O)cc2Cl)C(=O)C1`, the IC50 (ELAV-like protein 1) is reported as 16.7 µM (inactive).
In the case of `c1cc2c(cc1Cn1cnnn1)OCO2`, the IC50 [1] is reported as > 100 µM (not active).
In the case of `O=C(O)CCCNc1cc(N2CCN(C(=O)c3ccco3)CC2)c2noc3c2c1C(=O)c1ccccc1-3`, the IC50 (Fibrinogen beta chain [2]) is reported as > 83.3 µM (inactive), the EC50 (Streptokinase A) is reported as > 150 µM (not active) and the EC50 (Streptococcus) is reported as 31.8 µM (active). The IC50 (Fibrinogen beta chain [3]) was 4.96 µM (active), the IC50 [4] was > 20 µM (inactive) and the AC50 [5] was 14.8 µM (active). For the same compound, the IC50 (Large T antigen) was > 100 µM (active), the EC50 [6] was 5.52 µM (active) and the IC50 [7] was > 128 µM (inactive).
In the case of `CN1CCC(=C2c3ccccc3C=Cc3ccccc32)CC1` [CYPROHEPTADINE], the IC50 [8] is reported as 5.92 µM (inactive), the IC50 [9] is reported as > 20 µM (inactive) and the IC50 [10] is reported as 10.8 µM (inactive). For the same compound, the IC50 [11] was > 20 µM (inactive), the IC50 [12] was > 20 µM (inactive) and the IC50 [13] was > 20 µM (inactive). The IC50 [14] was > 20 µM (inactive) and the IC50 [15] was 11.3 µM (inactive).
With `CCC(=O)N1CCC2(CC1)CN(S(=O)(=O)c1ccccc1)[C@@H](CO)c1[nH]c3cc(OC)ccc3c12` the AC50 [16] was 2.04 µM (active), the AC50 [17] was 0.961 µM (active) and the AC50 [18] was 1.31 µM (active). For the same compound, the AC50 [19] was 1.47 µM (active).
